≈ marks a conversion by molar mass, not a printed value.
Legend:
Type in all cases: functional
Pseudomonas aeruginosa [1] = experiment: Synergistic antibacterial activity against Pseudomonas aeruginosa PAO1 assessed as aztreonam MIC upto […] ug/ml incubated for 18 hrs by checkerboard method (reference value: 8 microg/ml)
Pseudomonas aeruginosa [2] = experiment: Antibacterial activity against BL (+) Pseudomonas aeruginosa ATCC 27853 assessed as inhibition of bacterial growth incubated for 18 hrs by agar dilution method
Klebsiella pneumoniae [3] = experiment: Antibacterial activity against NDM-1 (+) Klebsiella pneumoniae 09-20 assessed as inhibition of bacterial growth incubated for 18 hrs by agar dilution method
Klebsiella pneumoniae [4] = experiment: Antibacterial activity against NDM-1 (+) Klebsiella pneumoniae 2146 assessed as inhibition of bacterial growth incubated for 18 hrs by agar dilution method
Escherichia coli [5] = experiment: Antibacterial activity against ESBLs (-) Escherichia coli ATCC 25922 assessed as inhibition of bacterial growth incubated for 18 hrs by agar dilution method
Escherichia coli [6] = experiment: Antibacterial activity against ESBLs (+) Escherichia coli 16-1 assessed as inhibition of bacterial growth incubated for 18 hrs by agar dilution method
Escherichia coli [7] = experiment: Antibacterial activity against NDM-1 (+) Escherichia coli CDC 1001728 assessed as inhibition of bacterial growth incubated for 18 hrs by agar dilution method
Escherichia coli [8] = experiment: Antibacterial activity against mcr-1 (+) Escherichia coli 08-85 assessed as inhibition of bacterial growth incubated for 18 hrs by agar dilution method
Klebsiella pneumoniae [9] = experiment: Antibacterial activity against ESBLs (+) Klebsiella pneumoniae ATCC 700603 assessed as inhibition of bacterial growth incubated for 18 hrs by agar dilution method
Klebsiella pneumoniae [10] = experiment: Antibacterial activity against ESBLs (+) Klebsiella pneumoniae 16-14 assessed as inhibition of bacterial growth incubated for 18 hrs by agar dilution method
Pseudomonas aeruginosa [11] = experiment: Antibacterial activity against Pseudomonas aeruginosa PAO1 assessed as inhibition of bacterial growth incubated for 18 hrs by agar dilution method

NCCC[C@H](NC(=O)Cc1ccc2ccccc2c1)C(=O)N[C@@H](Cc1ccccc1)C(=O)O
MIC (Pseudomonas aeruginosa [1]): 8 µg/mL

NCCC[C@H](NC(=O)CCc1ccc([N+](=O)[O-])cc1)C(=O)Nc1ccc2ccccc2c1
MIC (Pseudomonas aeruginosa [1]): 8 µg/mL

NCCC[C@H](NC(=O)CCCc1ccccc1)C(=O)Nc1ccc2ccccc2c1
MIC (Pseudomonas aeruginosa [1]): 8 µg/mL

POLYMYXIN B
MIC (Pseudomonas aeruginosa [2]): 4 µg/mL
MIC (Klebsiella pneumoniae [3]): 16 µg/mL
MIC (Klebsiella pneumoniae [4]): 1 µg/mL
MIC (Escherichia coli [5]): 1 µg/mL
MIC (Escherichia coli [6]): 0.25 µg/mL
MIC (Escherichia coli [7]): 1 µg/mL
MIC (Escherichia coli [8]): 8 µg/mL
MIC (Klebsiella pneumoniae [9]): 2 µg/mL
MIC (Klebsiella pneumoniae [10]): 1 µg/mL
MIC (Pseudomonas aeruginosa [11]): 8 µg/mL

C[C@H]1[C@H](NC(=O)/C(=N\OCC(=O)N2CCCC(C(=O)O)C2)c2csc(N)n2)C(=O)N1S(=O)(=O)O (stereo not given in full)
MIC (Pseudomonas aeruginosa [2]): > 64 µg/mL
MIC (Klebsiella pneumoniae [3]): 64 µg/mL (≈ 123 µM)
MIC (Klebsiella pneumoniae [4]): > 64 µg/mL
MIC (Escherichia coli [5]): 0.5 µg/mL (≈ 0.964 µM)
MIC (Escherichia coli [6]): 2 µg/mL (≈ 3.86 µM)
MIC (Escherichia coli [7]): 16 µg/mL (≈ 30.9 µM)
MIC (Escherichia coli [8]): > 64 µg/mL
MIC (Klebsiella pneumoniae [9]): > 64 µg/mL
MIC (Klebsiella pneumoniae [10]): > 64 µg/mL
MIC (Pseudomonas aeruginosa [11]): > 64 µg/mL

C[C@H]1[C@H](NC(=O)/C(=N\OCC(=O)N2CCC(C(=O)O)C2)c2csc(N)n2)C(=O)N1S(=O)(=O)O (stereo not given in full)
MIC (Pseudomonas aeruginosa [2]): > 64 µg/mL
MIC (Klebsiella pneumoniae [3]): 32 µg/mL (≈ 63.4 µM)
MIC (Klebsiella pneumoniae [4]): > 64 µg/mL
MIC (Escherichia coli [5]): 1 µg/mL (≈ 1.98 µM)
MIC (Escherichia coli [6]): 2 µg/mL (≈ 3.96 µM)
MIC (Escherichia coli [7]): 16 µg/mL (≈ 31.7 µM)
MIC (Escherichia coli [8]): > 64 µg/mL
MIC (Klebsiella pneumoniae [9]): > 64 µg/mL
MIC (Klebsiella pneumoniae [10]): > 64 µg/mL
MIC (Pseudomonas aeruginosa [11]): > 64 µg/mL

C[C@H](O/N=C(\C(=O)N[C@@H]1C(=O)N(OS(=O)(=O)O)C1(C)C)c1csc(N)n1)C(=O)O
MIC (Pseudomonas aeruginosa [2]): 16 µg/mL (≈ 35.4 µM)
MIC (Klebsiella pneumoniae [3]): 0.5 µg/mL (≈ 1.11 µM)
MIC (Klebsiella pneumoniae [4]): 4 µg/mL (≈ 8.86 µM)
MIC (Escherichia coli [5]): 0.25 µg/mL (≈ 0.554 µM)
MIC (Escherichia coli [6]): 0.125 µg/mL (≈ 0.277 µM)
MIC (Escherichia coli [8]): 0.25 µg/mL (≈ 0.554 µM)
MIC (Klebsiella pneumoniae [9]): 8 µg/mL (≈ 17.7 µM)
MIC (Klebsiella pneumoniae [10]): 0.25 µg/mL (≈ 0.554 µM)
MIC (Pseudomonas aeruginosa [11]): 16 µg/mL (≈ 35.4 µM)

C[C@H]1[C@H](NC(=O)/C(=N\OC(C)(C)C(=O)N2CCC[C@@H]2C(=O)O)c2csc(N)n2)C(=O)N1S(=O)(=O)O
MIC (Pseudomonas aeruginosa [2]): 32 µg/mL (≈ 60.1 µM)
MIC (Klebsiella pneumoniae [3]): 16 µg/mL (≈ 30 µM)
MIC (Klebsiella pneumoniae [4]): > 64 µg/mL
MIC (Escherichia coli [5]): 2 µg/mL (≈ 3.76 µM)
MIC (Escherichia coli [6]): 1 µg/mL (≈ 1.88 µM)
MIC (Escherichia coli [7]): 64 µg/mL (≈ 120 µM)
MIC (Escherichia coli [8]): > 64 µg/mL
MIC (Klebsiella pneumoniae [9]): > 64 µg/mL
MIC (Klebsiella pneumoniae [10]): > 64 µg/mL
MIC (Pseudomonas aeruginosa [11]): 8 µg/mL (≈ 15 µM)

CC(C)[C@@H](O/N=C(\C(=O)N[C@@H]1C(=O)N(OS(=O)(=O)O)C1(C)C)c1csc(N)n1)C(=O)O
MIC (Pseudomonas aeruginosa [2]): > 64 µg/mL
MIC (Klebsiella pneumoniae [3]): 16 µg/mL (≈ 33.4 µM)
MIC (Klebsiella pneumoniae [4]): > 64 µg/mL
MIC (Escherichia coli [5]): 16 µg/mL (≈ 33.4 µM)
MIC (Escherichia coli [6]): 8 µg/mL (≈ 16.7 µM)
MIC (Escherichia coli [7]): 32 µg/mL (≈ 66.7 µM)
MIC (Escherichia coli [8]): 32 µg/mL (≈ 66.7 µM)
MIC (Klebsiella pneumoniae [9]): 64 µg/mL (≈ 133 µM)
MIC (Klebsiella pneumoniae [10]): 16 µg/mL (≈ 33.4 µM)
MIC (Pseudomonas aeruginosa [11]): > 64 µg/mL

COc1ccc(CCC(=O)N[C@@H](CCCN)C(=O)Nc2ccc3ccccc3c2)cc1
MIC (Pseudomonas aeruginosa [1]): 8 µg/mL

C[C@H]1[C@H](NC(=O)/C(=N\OCC(=O)N2CCC[C@@H]2C(=O)O)c2csc(N)n2)C(=O)N1S(=O)(=O)O
MIC (Pseudomonas aeruginosa [2]): > 64 µg/mL
MIC (Klebsiella pneumoniae [3]): 2 µg/mL (≈ 3.96 µM)
MIC (Klebsiella pneumoniae [4]): > 64 µg/mL
MIC (Escherichia coli [5]): 0.12 µg/mL (≈ 0.238 µM)
MIC (Escherichia coli [6]): 0.12 µg/mL (≈ 0.238 µM)
MIC (Escherichia coli [7]): 8 µg/mL (≈ 15.9 µM)
MIC (Escherichia coli [8]): > 64 µg/mL
MIC (Klebsiella pneumoniae [9]): > 64 µg/mL
MIC (Klebsiella pneumoniae [10]): 16 µg/mL (≈ 31.7 µM)
MIC (Pseudomonas aeruginosa [11]): 32 µg/mL (≈ 63.4 µM)

NCCC[C@H](NC(=O)C[C@H](N)c1ccccc1)C(=O)Nc1ccc2ccccc2c1
MIC (Pseudomonas aeruginosa [1]): 8 µg/mL

C=CCO/N=C(\C(=O)N[C@@H]1C(=O)N(S(=O)(=O)O)[C@H]1C)c1nsc(N)n1
MIC (Pseudomonas aeruginosa [2]): > 64 µg/mL
MIC (Klebsiella pneumoniae [3]): > 64 µg/mL
MIC (Klebsiella pneumoniae [4]): > 64 µg/mL
MIC (Escherichia coli [5]): 8 µg/mL (≈ 20.5 µM)
MIC (Escherichia coli [6]): 16 µg/mL (≈ 41 µM)
MIC (Escherichia coli [7]): 64 µg/mL (≈ 164 µM)
MIC (Escherichia coli [8]): > 64 µg/mL
MIC (Klebsiella pneumoniae [9]): > 64 µg/mL
MIC (Klebsiella pneumoniae [10]): > 64 µg/mL
MIC (Pseudomonas aeruginosa [11]): 64 µg/mL (≈ 164 µM)

NCCC[C@H](NC(=O)CCc1ccc(F)cc1)C(=O)Nc1ccc2ccccc2c1
MIC (Pseudomonas aeruginosa [1]): 8 µg/mL

C[C@H]1[C@H](NC(=O)/C(=N\OCC(=O)N2CCC[C@@H]2C(=O)O)c2nsc(N)n2)C(=O)N1S(=O)(=O)O
MIC (Pseudomonas aeruginosa [2]): > 64 µg/mL
MIC (Klebsiella pneumoniae [3]): 16 µg/mL (≈ 31.7 µM)
MIC (Klebsiella pneumoniae [4]): > 64 µg/mL
MIC (Escherichia coli [5]): 1 µg/mL (≈ 1.98 µM)
MIC (Escherichia coli [6]): 1 µg/mL (≈ 1.98 µM)
MIC (Escherichia coli [7]): 8 µg/mL (≈ 15.8 µM)
MIC (Escherichia coli [8]): > 64 µg/mL
MIC (Klebsiella pneumoniae [9]): > 64 µg/mL
MIC (Klebsiella pneumoniae [10]): > 64 µg/mL
MIC (Pseudomonas aeruginosa [11]): > 64 µg/mL

C[C@H]1[C@H](NC(=O)/C(=N\OCC(=O)N2C3CCCC3C[C@@H]2C(=O)O)c2csc(N)n2)C(=O)N1S(=O)(=O)O (stereo not given in full)
MIC (Pseudomonas aeruginosa [2]): > 64 µg/mL
MIC (Klebsiella pneumoniae [3]): 8 µg/mL (≈ 14.7 µM)
MIC (Klebsiella pneumoniae [4]): > 64 µg/mL
MIC (Escherichia coli [5]): 1 µg/mL (≈ 1.84 µM)
MIC (Escherichia coli [6]): 1 µg/mL (≈ 1.84 µM)
MIC (Escherichia coli [7]): 16 µg/mL (≈ 29.4 µM)
MIC (Escherichia coli [8]): > 64 µg/mL
MIC (Klebsiella pneumoniae [9]): > 64 µg/mL
MIC (Klebsiella pneumoniae [10]): 64 µg/mL (≈ 118 µM)
MIC (Pseudomonas aeruginosa [11]): > 64 µg/mL
